Experimental data published in paper PMC8196563, “Trichilones A–E: New Limonoids from Trichilia adolfi” (Molecules, 2021).
≈ marks a conversion by molar mass, not a printed value. Read-outs that look alike come from different tables or passages of the source. One block for each compound: values may come before it.

What was measured:
[1] = tested on: L. braziliensis promastigotes; experiment: In vitro leishmanicidal activity against promastigotes; assay type: cell-based; conditions: Leishmania braziliensis, 72 h, read-out: Leishmanicidal activity L.b, IC50
Procedure: (§1) Leishmanicidal activity was assayed according to Williams, with some modi-fication. Promastigotes of Leishmania: L. amazonensis, Clone 1, NHOM-BR-76-LTB-012 (Lma, donated by the Paul Sabatier Université, France) and L. braziliensis M2904 C192 RJA (M2904, donated by Dr. Jorge Arévalo from Universidad Peruana Cayetano Heredia, Peru). The strains were cultured in Schneider’s insect medium (pH 6.2), supplemented with 10% FBS and incubated in 96-microwell plates at 26 °C. Briefly, promastigotes in logarithmic phase of growth, at concentration of […], were exposed to samples dissolved in DMSO (1%) at different concentrations (3.1–100 μg/mL). Miltefosine (3.1–100 μg/mL, IDPS, France) was used as a positive control drug. The microwell plates were incubated for 72 h at 26 °C, the optical density of each well was measured and the IC50 values calculated. All assays were performed in triplicate.

[2] = Cytotoxicity in murine macrophage cells (resazurin); assay type: cell-based; conditions: mouse, Raw 264.7 macrophage cells, Raw 264.7 murine macrophage cells, triplicate
Procedure: The Raw 264.7 murine macrophage cell line was purchased from the American Type Culture Collection (ATCC-TIB71) (Manassas, VA, USA). The cells were maintained in DMEM-HG medium supplemented with 10% fetal bovine serum, 100 U/mL of penicillin and 100 μg/mL of streptomycin and sodium bicarbonate (2.2 g/L) in humidified atmosphere at 37 °C with 5% CO2. Samples were prepared as described above and added (in […]) at different concentrations (6.2–200 μg/mL). Medium blank, control drugs and cell growth controls were included to evaluate cell viability. The plates were incubated for 72 h at 37 °C with 5% CO2. After incubation for the indicated time, the cells were washed, after which 10 μL of Resazurin reagent (2.0 mM) was added. They were further incubated at 37 °C for 3 h in a humidified incubator. The IC50 values were assessed using a fluorometric reader (540 nm excitation, 590 nm emission) and Gen5 software. All assays were performed in triplicate.

[3] = tested on: Leishmania amazonensis promastigotes; experiment: In vitro leishmanicidal activity against promastigotes; assay type: cell-based; conditions: 72 h, read-out: Leishmanicidal activity L.a, IC50
Procedure: as §1

[4] = L. braziliensis M2904 C192 RJA promastigotes, 26 °C, triplicate
[5] = L. amazonensis Clone 1 NHOM-BR-76-LTB-012 promastigotes, 26 °C, triplicate

melting point: 143 °C
SMILES: COC(=O)CC1C(C)(C)OC(=O)CC2OC3(C)C4C(=O)CC(c5ccoc5)C4(C)C(OC(C)=O)C(OC(=O)C(C)C)C3C21C (stereo not drawn) [Compound 1, Trichilone A]
IC50 [1, 4]: 58 ± 18 µg/mL (≈ 94 µM)
IC50 at 72 h [2]: 42 ± 0.9 µg/mL (≈ 68.1 µM)

SMILES: CCC(C)C(=O)OC1C(OC(C)=O)C2(C)C(c3ccoc3)CC(=O)C2C2(C)OC3CC(=O)OC(C)(C)C(CC(=O)OC)C3(C)C12 (stereo not drawn) [Compound 2, Trichilone B]
IC50 [1, 4]: 70.1 ± 3 µg/mL (≈ 111 µM)
IC50 [3, 5]: > 100 µg/mL
IC50 at 72 h [2]: 30 ± 10 µg/mL (≈ 47.6 µM)

SMILES: CCC(C)C(=O)OC1C(OC(C)=O)C2(C)C(c3ccoc3)CC(=O)C2C2(C)OC3CC(=O)OC(C)(C)C(CC(=O)OC)C3(C)C12O (stereo not drawn) [Compound 3, Trichilone C]
IC50 [1]: 87.2 ± 13 µg/mL (≈ 135 µM)
IC50 [3]: > 100 µg/mL
IC50 at 72 h [2]: 60 ± 17 µg/mL (≈ 92.8 µM)

SMILES: COC(=O)CC1C(C)(C)OC(=O)C=C2OC3(C)C(C(OC(C)=O)C(OC(C)=O)C4(C)C(c5ccoc5)CC(=O)C34)C21C (stereo not drawn) [Compound 4, Trichilone D]
IC50 [1, 4]: 98.5 ± 1.5 µg/mL (≈ 168 µM)
IC50 [3, 5]: > 100 µg/mL
IC50 at 72 h [2]: 94.1 ± 4.2 µg/mL (≈ 160 µM)

SMILES: COC(=O)CC1C(C)(C)OC(=O)C=C2OC3(C)C(C(OC(=O)C(C)C)C(OC(C)=O)C4(C)C(c5ccoc5)CC(=O)C34)C21C (stereo not drawn) [Compound 5, Trichilone E]
IC50 [1, 4]: 68.1 ± 6 µg/mL (≈ 111 µM)
IC50 [3, 5]: 92 ± 7 µg/mL (≈ 150 µM)
IC50 at 72 h [2]: 41.5 ± 24 µg/mL (≈ 67.5 µM)

SMILES: CCCCCCCCCCCCCCCCOP(=O)([O-])OCC[N+](C)(C)C [Miltefosine, reference compound]
IC50 [1, 4]: 4.07 ± 0.5 µg/mL (≈ 9.99 µM)
IC50 [3, 5]: 5 ± 0.2 µg/mL (≈ 12.3 µM)
IC50 at 72 h [2]: 21 ± 2 µg/mL (≈ 51.5 µM)
